{"source": "patent US6469166B2", "about": "“Thiophenopyrimidines” (Neurocrine Biosciences, Inc., priority 1996, dated 2002)", "molecular_target": "T1, human CRF receptors (Homo sapiens, UniProt P34998)", "T1 construct": "expressed in transfected cells; a membrane suspension of the stably transfected cells was used", "T1 sequence (P34998 24-415)": "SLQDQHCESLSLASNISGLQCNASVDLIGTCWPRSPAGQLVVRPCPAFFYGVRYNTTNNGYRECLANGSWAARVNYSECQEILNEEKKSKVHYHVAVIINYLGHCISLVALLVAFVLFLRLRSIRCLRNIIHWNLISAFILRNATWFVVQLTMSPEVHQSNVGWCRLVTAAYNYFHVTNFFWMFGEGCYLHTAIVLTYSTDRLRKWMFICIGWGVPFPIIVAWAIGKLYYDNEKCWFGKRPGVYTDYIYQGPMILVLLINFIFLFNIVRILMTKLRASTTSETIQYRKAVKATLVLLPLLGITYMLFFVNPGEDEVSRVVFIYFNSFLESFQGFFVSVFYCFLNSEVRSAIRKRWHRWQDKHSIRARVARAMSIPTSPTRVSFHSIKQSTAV", "assay": "CRF receptor radioligand binding assay ([125I] tyrosine-ovine CRF displacement)", "settings": "compounds found to show the best score in this test", "protocol": "Compounds were evaluated for binding activity to the CRF receptor by a standard radioligand binding assay as generally described by DeSouza et al. (J. Neutrosci. 7:88-100, 1987). By utilizing various radiolabeled CRF ligands, the assay may be used to evaluate the binding activity of the compounds of the present invention with any CRF receptor subtype. Briefly, the binding assay involves the displacement of a radiolabeled CRF ligand from the CRF receptor. More specifically, the binding assay was performed in 1.5 ml Eppendorf tubes using approximately 1×10^6 cells per tube stably transfected with human CRF receptors. Each tube received about 0.1 ml of assay buffer (e.g., Dulbecco's phosphate buffered saline, 10 mM magnesium chloride, 20 μM bacitracin) with or without unlabeled sauvagine, urotensin I or CRF (final concentration, 1 μM) to determine nonspecific binding, 0.1 ml of [^125I] tyrosine-ovine CRF (final concentration ˜200 pM or approximately the KD as determined by Scatchard analysis) and 0.1 ml of a membrane suspension of cells containing the CRF receptor. […] Following two washes of the pellets, the tubes were cut just above the pellet and monitored in a gamma counter for radioactivity at approximately 80% efficiency. All radioligand binding data were analyzed using a non-linear least-square curve-fitting program. […]"}
{"smiles": "CCCN(CCC)c1nc(C)nc2c(-c3c(C)cc(C)cc3C)csc12", "note": "[Compound 1, 2-methyl-6-(N,N-dipropylamino)-8-(2,4,6-trimethylphenyl)-thiopheno[3,2-d]pyrimidine]", "values": [{"measurement": "score in the CRF receptor binding test", "value": "best score"}]}
